# Experimental data taken from paper PMC8752738, “A propolis-derived small molecule ameliorates metabolic syndrome in obese mice by targeting the CREB/CRTC2 transcriptional complex” (Nature Communications, 2022).
# Values joined by “and” are separate entries in the source; they are usually repeats but may differ in a detail not shown here. Equal entries are not always repeated. Where two headings read alike, the source gives them in different places.
# Assays:
# AMPK = assay: Phospho-AMPK immunoblot in primary hepatocytes; type: cell-based, mouse; conditions: for relative p-AMPK protein, mean: N=3 (0 μM = 1); for relative p-AMPK protein: Supp. fig.3e, individual replicates
# Protocol: Immunoblotting and immunoprecipitation assays were performed as previously described, with antibodies recognizing CREB, Ser133-P-CREB, AMPK, P-AMPK, AKT, P-AKT (Cell Signaling), PGC-1α (Merck), CRTC2 (Calbiochem), PCK1 (Santa Cruz), SREBP1 (Santa Cruz), SREBP2 (BD), HA (Convance), LXRα (Santa Cruz), FLAG (Sigma), GST (Covance), HIS (Abmart), GAPDH (AOGMA), α-TUBULIN (Abmart), β-ACTIN (Abmart), and other antibodies (Supplementary Table 3). For immunostaining assays, primary cultured hepatocytes seeded on coverslips were fixed with 4% paraformaldehyde for 20 min, permeabilized with 0.3% Triton X-100 in PBS, and then blocked by 5% normal goat serum and 0.3% Triton X-100 in PBS, followed by incubation with anti-CREB (1:1000), anti-P-CREB (1:1000), or anti-HA (1:3000) antibodies for 1 h at 4 °C. Slides were then washed, and after washing, slides were incubated with fluorochrome-conjugated secondary antibodies (Invitrogen). Slides were then washed and mounted with Vectashield mounting media containing 4, 6-diamidino-2-phenylindole (DAPI).
# 1 Supplementary Figure 3. APC inhibits gluconeogenesis independent of CREB-phosphorylation,
# 2 cell toxin or AMPK activation. […]
# 20 e) Phosphate-AMPK level in primary hepatocytes incubated with APC or metformin (MET) at
# 21 indicated concentrations (0–200 μM) for 30 minutes (top). Relative P-AMPK normalized by AMPK is […]
# HIS-CREB protein = target: T1, HIS-CREB protein (Homo sapiens, UniProt P16220); assay: Surface plasmon resonance, immobilized HIS-CREB; type: binding; conditions: dose-dependent
# T1 construct: made in house
# Protocol: BIACORE 100 (GE Healthcare) was employed to perform surface plasmon resonance. Briefly, purified HIS-CREB proteins were captured in the test channel of an NTA-chip (GE, Healthcare) in HEPES buffer (10 mM HEPES, 150 mM NaCl, 3 mM EDTA, pH 7.5). APC solutions with different concentrations were flowed through immobilized HIS-CREB proteins for indicated times, which caused equilibrium response values (RU) to change appropriately. The detected RU values were plotted by time using GraphPad Prism software.
# [1] = Tissue distribution assay; type: in vivo, mouse; conditions: for concentration at 8 h / concentration at 4 h / concentration at 2 h: male, C57/BL6, mouse, po, 20 mg/kg
# Protocol: Male C57/BL6 mice (18–20 g, n = 3 in each group) were randomly sorted into treatment groups. Being fasted for 12-h, mice were treated with oral gavage of the compound APC (20 mg/kg, in DMSO/0.5% HMPC, 5/95, v/v). After 2, 4, and 8-h of administration, the animals were sacrificed, respectively, the indicated tissues, including plasma, liver, kidney, muscle, brain, spleen, pancreas, white and brown fat, were collected and preserved at −80 °C. The APC content in samples was analyzed with a liquid chromatography-mass spectrometry/mass spectrometry (LC–MS/MS) system and normalized by protein content.
# [2] = 200 μM (first of two lines printed 200)
# [3] = 200 μM (second of two lines printed 200)
# T1 sequence (P16220 whole entry): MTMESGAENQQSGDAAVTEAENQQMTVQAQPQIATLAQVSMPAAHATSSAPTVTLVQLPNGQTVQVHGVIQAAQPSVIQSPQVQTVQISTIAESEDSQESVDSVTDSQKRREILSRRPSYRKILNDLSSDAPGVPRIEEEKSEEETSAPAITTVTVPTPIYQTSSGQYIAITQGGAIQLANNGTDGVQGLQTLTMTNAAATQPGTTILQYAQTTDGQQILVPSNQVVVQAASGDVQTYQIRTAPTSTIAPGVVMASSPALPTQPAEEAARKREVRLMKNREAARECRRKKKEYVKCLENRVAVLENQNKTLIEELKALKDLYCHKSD
smiles,measurement,setting,value
"CC(C)=CCc1cc(C=CC(=O)O)cc(CC=C(C)C)c1O [APC, 3,5-diprenyl-4-hydroxycinnamic acid]","relative p-AMPK protein, mean",AMPK; 5 μM,0.9451
same,"relative p-AMPK protein, mean",AMPK; 10 μM,0.8939
same,"relative p-AMPK protein, mean",AMPK; 100 μM,0.906
same,"relative p-AMPK protein, mean",AMPK; [2],0.9865
same,"relative p-AMPK protein, mean",AMPK; [3],1.094
same,relative p-AMPK protein,AMPK; 5 μM,1.019 and 0.9566 and 0.8598
same,relative p-AMPK protein,AMPK; 10 μM,0.8723 and 0.8495 and 0.96
same,relative p-AMPK protein,AMPK; 100 μM,0.9495 and 0.9349 and 0.8336
same,relative p-AMPK protein,AMPK; [2],0.9904 and 0.9893 and 0.9798
same,relative p-AMPK protein,AMPK; [3],1.017 and 1.161 and 1.105
same,"relative p-AMPK protein, column mean","AMPK; mean over all concentrations, 0 μM included",0.971
same,phosphorylation of AMPK,"AMPK; primary hepatocytes, up to 200 μM",did not induce phosphorylation of AMPK
same,binding to immobilized HIS-CREB (SPR),HIS-CREB protein,directly bound
same,content of APC in the liver compared with other tissues,[1]; 2–8 h after one oral dose 20 mg/kg,highest
same,APC content in tissue,"[1]; Brain, 2H, oral, individual mice, * below the detection line, 2 h after oral dose",0* ng/g (2×) and 16.430 ng/g
same,APC content in tissue,"[1]; Brain, 4H, oral, individual mice, * below the detection line",0* ng/g
same,APC content in tissue,"[1]; Brain, 4H, oral, individual mice, * below the detection line, 4 h after oral dose",1.550 ng/g and 4.810 ng/g
same,APC content in tissue,"[1]; Brain, 8H, oral, individual mice, * below the detection line",0* ng/g
same,APC content in tissue,"[1]; BrownFat, 2H, oral, individual mice, 2 h after oral dose",9.800 ng/g and 11.690 ng/g
same,APC content in tissue,"[1]; BrownFat, 4H, oral, individual mice",9.800 ng/g
same,APC content in tissue,"[1]; BrownFat, 4H, oral, individual mice, 4 h after oral dose",14.240 ng/g and 144.870 ng/g
same,APC content in tissue,"[1]; BrownFat, 8H, oral, individual mice",1.740 ng/g and 5.480 ng/g and 3.880 ng/g
same,APC content in tissue,"[1]; Kidney, 2H, oral, individual mice, 2 h after oral dose",23.340 ng/g and 9.890 ng/g and 11.250 ng/g
same,APC content in tissue,"[1]; Kidney, 4H, oral, individual mice",9.550 ng/g
same,APC content in tissue,"[1]; Kidney, 4H, oral, individual mice, 4 h after oral dose",19.740 ng/g and 19.810 ng/g
same,APC content in tissue,"[1]; Kidney, 8H, oral, individual mice",2.260 ng/g and 4.200 ng/g and 7.700 ng/g
same,APC content in tissue,"[1]; Live (liver), 2H, oral, individual mice, 2 h after oral dose",703.950 ng/g and 577.440 ng/g
same,APC content in tissue,"[1]; Live (liver), 4H, oral, individual mice",815.560 ng/g
same,APC content in tissue,"[1]; Live (liver), 4H, oral, individual mice, 4 h after oral dose",1205.720 ng/g
same,APC content in tissue,"[1]; Live (liver), 8H, oral, individual mice",287.680 ng/g and 320.280 ng/g
same,APC content in tissue,"[1]; Muscle, 2H, oral, individual mice, 2 h after oral dose",2.680 ng/g and 4.690 ng/g
same,APC content in tissue,"[1]; Muscle, 4H, oral, individual mice",13.390 ng/g
same,APC content in tissue,"[1]; Muscle, 4H, oral, individual mice, 4 h after oral dose",7.190 ng/g
same,APC content in tissue,"[1]; Muscle, 8H, oral, individual mice",0.000 ng/g and 1.740 ng/g and 1.650 ng/g
same,APC content in tissue,"[1]; Pancreas, 2H, oral, individual mice, 2 h after oral dose",18.050 ng/g and 11.070 ng/g and 26.740 ng/g
same,APC content in tissue,"[1]; Pancreas, 4H, oral, individual mice",33.580 ng/g
same,APC content in tissue,"[1]; Pancreas, 4H, oral, individual mice, 4 h after oral dose",20.040 ng/g and 8.730 ng/g
same,APC content in tissue,"[1]; Pancreas, 8H, oral, individual mice, * below the detection line",10.890 ng/g and 0* ng/g (2×)
same,APC content in tissue,"[1]; Spleen, 2H, oral, individual mice, 2 h after oral dose",10.360 ng/g and 16.550 ng/g
same,APC content in tissue,"[1]; Spleen, 4H, oral, individual mice",12.280 ng/g
same,APC content in tissue,"[1]; Spleen, 4H, oral, individual mice, 4 h after oral dose",22.450 ng/g
same,APC content in tissue,"[1]; Spleen, 8H, oral, individual mice",0.000 ng/g and 12.270 ng/g and 10.910 ng/g
same,APC content in tissue,"[1]; WhiteFat, 2H, oral, individual mice, 2 h after oral dose",10.520 ng/g and 12.290 ng/g
same,APC content in tissue,"[1]; WhiteFat, 4H, oral, individual mice",42.520 ng/g
same,APC content in tissue,"[1]; WhiteFat, 4H, oral, individual mice, 4 h after oral dose",32.220 ng/g
same,APC content in tissue,"[1]; WhiteFat, 8H, oral, individual mice",3.140 ng/g and 8.490 ng/g and 14.550 ng/g
same,APC-PO-heart-plasma,"[1]; heart plasma, PO, 2H, individual mice",28.92 ng/mL and 27.48 ng/mL
same,APC-PO-heart-plasma,"[1]; heart plasma, PO, 4H, individual mice",64.03 ng/mL and 39.57 ng/mL
same,APC-PO-heart-plasma,"[1]; heart plasma, PO, 8H, individual mice",7.56 ng/mL and 19.01 ng/mL and 14.9 ng/mL
same,concentration at 8 h,"[1]; brain, Brain, 8H, oral, individual mice, * below the detection line, read-out: APC content in tissue",0 ng/g
same,concentration at 4 h,"[1]; brain, brain, 4 h after oral, Figure 5l, Y, read-out: average APC content 4 h after oral",3.18 ng/g
same,concentration at 4 h,"[1]; brain, brain, 4 h after oral, Figure 5l, size of bubble, read-out: average APC content 4 h after oral",3.18 ng/g
same,concentration at 4 h,"[1]; brown fat (BF), BF, 4 h after oral, Figure 5l, size of bubble, read-out: average APC content 4 h after oral",56.3 ng/g
same,concentration at 4 h,"[1]; brown fat, BF, 4 h after oral, Figure 5l, Y, read-out: average APC content 4 h after oral",56.3 ng/g
same,concentration at 2 h,"[1]; brown fat, BrownFat, 2H, oral, individual mice, read-out: APC content in tissue",11.1 ng/g
same,concentration at 2 h,"[1]; heart plasma, heart plasma, PO, 2H, individual mice, read-out: APC-PO-heart-plasma",32.1 ng/mL
same,concentration at 4 h,"[1]; heart plasma, heart plasma, PO, 4H, average, read-out: avarage APC, APC-PO-heart-plasma",48.5 ng/mL
same,concentration at 4 h,"[1]; heart plasma, heart plasma, PO, 4H, individual mice, read-out: APC-PO-heart-plasma",41.8 ng/mL
same,concentration at 4 h,"[1]; kidney, kidney, 4 h after oral, Figure 5l, Y, read-out: average APC content 4 h after oral",16.4 ng/g
same,concentration at 4 h,"[1]; kidney, kidney, 4 h after oral, Figure 5l, size of bubble, read-out: average APC content 4 h after oral",16.4 ng/g
same,concentration at 4 h,"[1]; liver, LIVER, 4 h after oral, Figure 5l, Y, read-out: average APC content 4 h after oral",917 ng/g
same,concentration at 4 h,"[1]; liver, LIVER, 4 h after oral, Figure 5l, size of bubble, read-out: average APC content 4 h after oral",917 ng/g
same,concentration at 2 h,"[1]; liver, Live (liver), 2H, oral, individual mice, read-out: APC content in tissue",756 ng/g
same,concentration at 4 h,"[1]; liver, Live (liver), 4H, oral, individual mice, read-out: APC content in tissue",729 ng/g
same,concentration at 8 h,"[1]; liver, Live (liver), 8H, oral, individual mice, read-out: APC content in tissue",178 ng/g
same,concentration at 2 h,"[1]; liver, avarage APC, Live (liver), 2H, oral, average, heading: avarage APC",679 ng/g
same,concentration at 4 h,"[1]; liver, avarage APC, Live (liver), 4H, oral, average, heading: avarage APC",917 ng/g
same,concentration at 2 h,"[1]; muscle, Muscle, 2H, oral, individual mice, read-out: APC content in tissue",3.77 ng/g
same,concentration at 4 h,"[1]; muscle, Muscle, 4H, oral, individual mice, read-out: APC content in tissue",6.73 ng/g
same,concentration at 4 h,"[1]; muscle, Muscle, 4 h after oral, Figure 5l, Y, read-out: average APC content 4 h after oral",9.1 ng/g
same,concentration at 4 h,"[1]; muscle, Muscle, 4 h after oral, Figure 5l, size of bubble, read-out: average APC content 4 h after oral",9.1 ng/g
same,concentration at 4 h,"[1]; pancreas, panc, 4 h after oral, Figure 5l, Y, read-out: average APC content 4 h after oral",20.8 ng/g
same,concentration at 4 h,"[1]; pancreas, panc, 4 h after oral, Figure 5l, size of bubble, read-out: average APC content 4 h after oral",21.2 ng/g
same,concentration at 4 h,"[1]; portal vein plasma, po-portal vein plasma, 4 h after oral, Figure 5l, Y, read-out: average APC content 4 h after oral",48.5 ng/g
same,concentration at 4 h,"[1]; portal vein plasma, po-portal vein plasma, 4 h after oral, Figure 5l, size of bubble, read-out: average APC content 4 h after oral",48.5 ng/g
same,concentration at 2 h,"[1]; spleen, Spleen, 2H, oral, individual mice, read-out: APC content in tissue",15.6 ng/g
same,concentration at 4 h,"[1]; spleen, Spleen, 4H, oral, individual mice, read-out: APC content in tissue",13.8 ng/g
same,concentration at 4 h,"[1]; spleen, spleen, 4 h after oral, Figure 5l, Y, read-out: average APC content 4 h after oral",16.2 ng/g
same,concentration at 4 h,"[1]; spleen, spleen, 4 h after oral, Figure 5l, size of bubble, read-out: average APC content 4 h after oral",16.2 ng/g
same,concentration at 4 h,"[1]; white fat, WF, 4 h after oral, Figure 5l, Y, read-out: average APC content 4 h after oral",32.7 ng/g
same,concentration at 4 h,"[1]; white fat, WF, 4 h after oral, Figure 5l, size of bubble, read-out: average APC content 4 h after oral",32.7 ng/g
same,concentration at 2 h,"[1]; white fat, WhiteFat, 2H, oral, individual mice, read-out: APC content in tissue",18.5 ng/g
same,concentration at 4 h,"[1]; white fat, WhiteFat, 4H, oral, individual mice, read-out: APC content in tissue",23.2 ng/g
